In PubChem BioAssay (NCI):
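These data come from cells grown in 96-well plates and exposed to compound for 48 hours at five concentrations. Definition used: TGI = concentration required for complete inhibition of growth.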

Tests used:
Assay in all cases: NCI tumour cell line growth inhibition, 48 h
A549 NSCLC = test system: A549 NSCLC
ACHN renal = test system: ACHN renal
EKVX NSCLC = test system: EKVX NSCLC
M14 melanoma = test system: M14 melanoma
MALME-3M melanoma = test system: MALME-3M melanoma
MCF7 breast = test system: MCF7 breast
MDA-MB-231 breast = test system: MDA-MB-231 breast
NCI-H226 lung = test system: NCI-H226 lung
PC-3 prostate = test system: PC-3 prostate
SNB-75 CNS = test system: SNB-75 CNS
OVCAR-8 ovarian = test system: OVCAR-8 ovarian

Compound	TGI (A549 NSCLC) [µM]	TGI (ACHN renal) [µM]	TGI (EKVX NSCLC) [µM]	TGI (M14 melanoma) [µM]	TGI (MALME-3M melanoma) [µM]	TGI (MCF7 breast) [µM]	TGI (MDA-MB-231 breast) [µM]	TGI (NCI-H226 lung) [µM]	TGI (PC-3 prostate) [µM]	TGI (SNB-75 CNS) [µM]	TGI (OVCAR-8 ovarian) [µM]
O=[N+]([O-])c1ccc(Cl)cc1C1ON=C(c2ccccc2)N1C12CC3CC(CC(C3)C1)C2 (configuration not stated)	> 100	> 100	> 100	> 100	> 100	> 100	> 100	> 100	> 100	> 100	
Oc1[nH]c2ccccc2c1N=NC1=NCCCCN1	> 100	> 100	> 100	> 100	> 100	> 100	> 100	> 100	> 100	> 100	> 100
c1ccc2c(c1)CCc1c-2n(CCN2CCCCC2)c2ccccc12	43.7	39.3	37.9	29.7	40.3	30.9	28	25.1	27.1	49.1	32
COC(=O)c1ccc2n1C1CC3CC(CC2C3)C1	> 100	> 100	> 100	> 100	> 100	> 100	> 100	> 100	> 100	> 100	> 100
COC(=O)NCCc1[nH]nc2c1C(=O)C=C(OC)C2=O	> 100	37	44.5	33.9	28.8	48.1	30.4	50.5	95.8	40.2	42.8
Cc1cc(C)c2c(n1)S(=O)(=O)N(CCCN1CCN(c3cccc(C(F)(F)F)c3)CC1)/C(=C(\O)c1ccccc1)C2=O	> 100	> 100	37.6	> 100	> 100	56.7	71.8	7.92	> 100	19.2	> 100
CCCn1cnc2c(NN=O)ncnc21		> 100	> 100	> 100	> 100	> 100	> 100	> 100	> 100	> 100	> 100
NC1CC2C3CCC2C1C3=O (configuration not stated)	> 100	> 100	> 100	> 100	> 100	> 100	> 100	> 100	> 100	> 100	> 100
COC(=O)C(NC(=O)CNC(=O)CSc1nnc(COc2ccc(Cl)cc2)n1-c1ccccc1)C(C)C (configuration not stated)	> 100	31.8	> 100	38.5	35.5	30.4	36.5	38.3	33	37.5	40.8
